Measured values from US20110144331A1, “Cinnoline Compounds for the Treatment of Anxiety, Cognitive and Mood Disorders” (AstraZeneca AB, priority 2005, published 2011).

What was measured:
[1] = target: T1, human α1β2γ2 GABAA receptor (Homo sapiens, UniProt P14867+P18507); test: Two-electrode voltage-clamp in Xenopus oocytes, potentiation of GABA EC10 current, GABAA1; type: cell-based; conditions: percentage potentiation of GABA EC10 current divided by that of diazepam control
T1 construct: expressed in transfected cells; host or cells: Xenopus laevis oocytes injected with capped cRNA
T1 sequence (P14867 28-456): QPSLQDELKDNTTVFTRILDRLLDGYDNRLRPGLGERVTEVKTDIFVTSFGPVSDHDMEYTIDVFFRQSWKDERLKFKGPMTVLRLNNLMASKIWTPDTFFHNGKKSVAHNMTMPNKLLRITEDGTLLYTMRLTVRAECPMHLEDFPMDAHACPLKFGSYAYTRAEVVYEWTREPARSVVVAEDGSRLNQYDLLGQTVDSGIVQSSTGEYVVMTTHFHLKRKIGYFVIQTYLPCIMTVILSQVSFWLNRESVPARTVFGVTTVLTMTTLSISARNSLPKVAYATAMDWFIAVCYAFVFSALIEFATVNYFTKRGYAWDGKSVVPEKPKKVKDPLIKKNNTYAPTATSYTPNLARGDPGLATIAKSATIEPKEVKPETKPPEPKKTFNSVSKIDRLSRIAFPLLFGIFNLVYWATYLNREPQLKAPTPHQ
T1 sequence (P47870 25-512 partner limits assumed): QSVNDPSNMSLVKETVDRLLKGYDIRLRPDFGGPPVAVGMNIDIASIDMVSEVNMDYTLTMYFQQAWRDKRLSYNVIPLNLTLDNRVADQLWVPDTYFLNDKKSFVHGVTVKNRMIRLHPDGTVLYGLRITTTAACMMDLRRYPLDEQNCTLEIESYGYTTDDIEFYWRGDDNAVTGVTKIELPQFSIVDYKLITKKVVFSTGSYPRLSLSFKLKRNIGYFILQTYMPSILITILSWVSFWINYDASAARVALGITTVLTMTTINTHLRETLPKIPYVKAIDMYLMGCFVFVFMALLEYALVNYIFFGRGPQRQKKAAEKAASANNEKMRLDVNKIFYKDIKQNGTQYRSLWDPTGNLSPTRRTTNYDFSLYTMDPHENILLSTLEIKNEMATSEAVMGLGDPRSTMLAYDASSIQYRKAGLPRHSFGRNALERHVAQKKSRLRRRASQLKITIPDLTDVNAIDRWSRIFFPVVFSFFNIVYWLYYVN
T1 sequence (P18507 40-475): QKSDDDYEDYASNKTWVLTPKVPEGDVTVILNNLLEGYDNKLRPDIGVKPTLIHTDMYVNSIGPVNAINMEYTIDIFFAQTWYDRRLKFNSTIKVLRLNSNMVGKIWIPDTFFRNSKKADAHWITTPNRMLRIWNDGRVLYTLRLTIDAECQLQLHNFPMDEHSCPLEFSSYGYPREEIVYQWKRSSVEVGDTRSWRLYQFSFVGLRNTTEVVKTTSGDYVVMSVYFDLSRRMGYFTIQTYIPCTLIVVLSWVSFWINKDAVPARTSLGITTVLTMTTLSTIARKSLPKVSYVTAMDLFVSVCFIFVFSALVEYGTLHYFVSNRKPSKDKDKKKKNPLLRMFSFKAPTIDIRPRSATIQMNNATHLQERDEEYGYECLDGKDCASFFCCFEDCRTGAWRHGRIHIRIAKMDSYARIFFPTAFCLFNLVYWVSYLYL
Procedure: (§1) GABAA receptors were heterologously expressed in Xenopus oocytes by injecting cRNA corresponding to human α1, α2, α3, α5, β2, β3 and γ2 subunits of the GABAA receptor genes. The specific subunit combinations (subtypes) were as follows: α1β2γ2, α2β3γ2, α3β3γ2, and α5β3γ2. The EC10 of GABA was approximated for each cell. Stability of GABA-mediated (EC10) current was established. Modulatory effect of test compound was determined and compared across subtypes. […] Thus, the assay can characterize modulatory effects and determine subtype selectivity of test compounds on major subtypes of GABAA receptors.
(§2) Surgically removed ovarian lobes were teased out in OR2 solution (82 NaCl, 2.5 KCl, 5 HEPES, 1.5 NaH2PO4, 1 MgCl2, 0.1 EDTA, in mM, pH 7.4). The oocytes were defolliculated by incubation in 25 mL OR2 containing 0.2% collagenase 1A (SIGMA) two times for about 60 minutes on a platform shaker and stored in Leibovitz's L-15 medium. Oocytes were injected the following day in 0.5× Leibovitz's L-15 medium containing […] gentamycin, 10 units/ml penicillin, and […] streptomycin.
(§3) Capped cRNAs from the linearized vectors containing human α1, β2 and γ2 subunits of the GABAA receptor genes were mixed in ratio of 1:1:30. Oocytes were injected with 25-50 nL of mixed RNA with an appx molar ratio for α1, β2, and γ2 as 1:1:10. Oocyte recordings were done 2-10 days after injection. The same methods apply to subtypes derived from α2β2γ2, α3β3γ2, and α5β3γ2, except for 1:1:1 ratio was used for α, β, and γ subunits.
(§4) All measurements were done in a medium containing ND-96 (96 NaCl, 2 KCl, 1.8 CaCl2.2H2O, 1 MgCl2.6H2O, 5 HEPES, in mM, pH 7.5). Two-electrode voltage-clamp recording was carried out using OpusXpress amplifier (Axon Instruments, Foster City, Calif.), which allows simultaneous recording from 8 oocytes. Oocytes were impaled with two electrodes of 1-2 MΩ tip resistance when filled with 3M KCl. Recordings were begun when membrane potential became stable at potentials negative to −50-−60 mV. Membrane potential was held at −60 mV. […] The concentration of GABA corresponded to the EC10 value calculated for each oocyte. The modulator pulses started 30 s before the GABA pulse so as to allow preincubation with the modulator. A set of 3 pulses with just GABA without modulator was given prior to the modulator-containing pulses to define the baseline GABA response. Two oocytes per each experiment were dedicated to observe the effect of diazepam on GABA response to ensure the presence of γ2 subunit in the GABAA pentameric complex, which imparts diazepam sensitivity to the complex.
(§5) Current amplitude (i) was measured from baseline to peak using Clampfit (Axon Inst., Foster City, Calif.). Potentiation was calculated as percent change from the baseline GABA current flux 100×(imod/icontrol)−1) where imod=current mediated by modulator+GABA and icontrol=current mediated by GABA alone. […] Similarly, a value of −50% potentiation means the presence of modulator caused a 50% decrease in the control current. Various other data shown here were fitted and plotted using GraphPad Prism (GraphPad Software, Inc. San Diego, Calif.). The percentage potentiation was converted to relative potentiation by dividing it with percentage potentiation value obtained from the same assay with diazepam as a control.

[2] = target: T2, human α2β3γ2 GABAA receptor (Homo sapiens, UniProt P18507+P47869); test: Two-electrode voltage-clamp in Xenopus oocytes, potentiation of GABA EC10 current, GABAA2; type: cell-based; conditions: percentage potentiation of GABA EC10 current divided by that of diazepam control
T2 construct: expressed in transfected cells; host or cells: Xenopus laevis oocytes injected with capped cRNA (α:β:γ 1:1:1)
T2 sequence (P47869 29-451): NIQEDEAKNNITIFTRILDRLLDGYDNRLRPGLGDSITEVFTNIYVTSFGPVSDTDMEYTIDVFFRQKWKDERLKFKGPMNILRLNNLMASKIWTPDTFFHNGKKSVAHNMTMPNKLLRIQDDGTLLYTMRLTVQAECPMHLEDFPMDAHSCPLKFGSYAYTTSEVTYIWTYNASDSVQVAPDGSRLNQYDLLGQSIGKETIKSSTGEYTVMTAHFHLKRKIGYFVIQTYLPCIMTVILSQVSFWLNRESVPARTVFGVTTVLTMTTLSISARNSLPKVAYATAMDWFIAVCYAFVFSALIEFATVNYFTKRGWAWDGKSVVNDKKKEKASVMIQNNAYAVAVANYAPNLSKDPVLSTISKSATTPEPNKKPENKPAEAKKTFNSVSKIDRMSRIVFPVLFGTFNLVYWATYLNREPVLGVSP
T2 sequence (P18507 40-475): as the sequence (P18507 40-475) above
T2 sequence (P28472 26-473 partner): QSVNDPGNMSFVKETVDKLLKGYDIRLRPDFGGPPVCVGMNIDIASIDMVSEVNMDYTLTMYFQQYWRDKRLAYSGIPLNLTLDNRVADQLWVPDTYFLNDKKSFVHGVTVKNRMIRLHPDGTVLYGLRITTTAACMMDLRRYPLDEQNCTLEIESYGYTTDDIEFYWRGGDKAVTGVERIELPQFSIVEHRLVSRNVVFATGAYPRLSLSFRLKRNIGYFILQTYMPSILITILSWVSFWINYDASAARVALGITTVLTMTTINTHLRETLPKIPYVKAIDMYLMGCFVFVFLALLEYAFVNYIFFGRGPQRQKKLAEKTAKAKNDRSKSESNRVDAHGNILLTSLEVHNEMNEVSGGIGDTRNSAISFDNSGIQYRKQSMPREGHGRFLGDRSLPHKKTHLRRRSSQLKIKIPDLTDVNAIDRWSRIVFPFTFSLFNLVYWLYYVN
Procedure: as §1, §2, §3, §4, §5

| Compound | Relative Potentiation for GABAA1 [1] | Relative Potentiation for GABAA2 [2] |
| --- | --- | --- |
| CCCNC(=O)c1nnc2c(-c3cccc(F)c3F)cccc2c1N | −0.11 | 0.17 |
| CCCNC(=O)c1nnc2c(-c3ccc(OC)nc3OC)cccc2c1N | 0.17 | 0.25 |
| CCCNC(=O)c1nnc2c(-c3ccc(F)cc3OC)c(F)ccc2c1N | −0.028 | 0.18 |
| CCCNC(=O)c1nnc2c(-c3ccc(OC)cc3F)c(F)ccc2c1N | 0.053 | 0.18 |
| CCCNC(=O)c1nnc2c(-c3cccc(C)c3C)c(F)ccc2c1N | 0.11 | 0.13 |
| COc1cccc(F)c1-c1cccc2c(N)c(C(=O)NC3CC3)nnc12 | −0.048 | 0.16 |
| CCCNC(=O)c1nnc2c(-c3cc(Cl)ccc3Cl)cccc2c1N | 0.12 | 0.21 |
| CCCNC(=O)c1nnc2c(-c3cc(F)ccc3C)c(F)ccc2c1N | 0.032 | 0.12 |
| CCCNC(=O)c1nnc2c(-c3cc(C)ccc3F)cccc2c1N | 0.095 | 0.37 |
| CCCNC(=O)c1nnc2c(-c3cnc(OC)nc3OC)c(F)ccc2c1N | 0.12 | 0.39 |
| CCCNC(=O)c1nnc2c(-c3cc(C)ccc3OC)c(F)ccc2c1N | 0.23 | 0.37 |
| CCCNC(=O)c1nnc2c(-c3cccc(OC)c3F)c(F)ccc2c1N | 0.05 | 0.23 |
| CCCNC(=O)c1nnc2c(-c3cc(F)ccc3OC)c(F)ccc2c1N | 0.085 | 0.22 |
| CCCNC(=O)c1nnc2c(-c3cc(F)ccc3F)cccc2c1N | −0.078 | 0.29 |
| CCCNC(=O)c1nnc2c(-c3ccccc3)c(F)ccc2c1N | −0.093 | 0.02 |
| CCCNC(=O)c1nnc2c(-c3cc(Cl)ccc3OC)cccc2c1N | 0.38 | 0.4 |
| CCCNC(=O)c1nnc2c(-c3cccnc3F)cccc2c1N | −0.083 | 0.17 |
| CCCNC(=O)c1nnc2c(-c3cccc(C#N)c3)cccc2c1N | 0.088 | 0.31 |
| CCCNC(=O)c1nnc2c(-c3cc(OC)ccc3Cl)c(F)ccc2c1N | 0.14 | 0.19 |
| CCCNC(=O)c1nnc2c(-c3cc(C)ccc3C)c(F)ccc2c1N | 0.21 | 0.28 |
| CCCNC(=O)c1nnc2c(-c3cc(C(F)(F)F)ccc3Cl)cccc2c1N | 0.47 | 0.59 |
| CCCNC(=O)c1nnc2c(-c3cc(F)c(OC)cc3F)cccc2c1N | 0.016 | 0.21 |
| CCCNC(=O)c1nnc2c(-c3ccncc3)cccc2c1N | −0.038 | 0.1 |
| CCCNC(=O)c1nnc2c(-c3ccc(C)nc3F)cccc2c1N | 0.053 | 0.27 |
| CCCNC(=O)c1nnc2c(-c3cnccc3C)cccc2c1N | 0.083 | 0.11 |
| CCCNC(=O)c1nnc2c(-c3ccc(F)cc3F)cccc2c1N | −0.088 | 0.12 |
| Nc1c(C(=O)NCC2CC2)nnc2c(-c3ccccc3)cccc12 | 0.11 | 0.24 |

| Compound | Relative Potentiation for GABAA1 [1] | Relative Potentiation for GABAA2 [2] |
| --- | --- | --- |
| CCCNC(=O)c1nnc2c(-c3ccccn3)cccc2c1N | 0.027 | −0.032 |
| CCCNC(=O)c1nnc2c(-c3cnc(OC)nc3)cccc2c1N | −0.066 | 0.11 |
| CCCNC(=O)c1nnc2c(-c3ccc(F)c(F)c3)cccc2c1N | −0.14 | 0.12 |
| CCCNC(=O)c1nnc2c(-c3ccc(OC)c(F)c3)cccc2c1N | 0.03 | 0.19 |
| CCCNC(=O)c1nnc2c(-c3cnccn3)cccc2c1N | −0.067 | −0.01 |
| CCCNC(=O)c1nnc2c(-c3cc(Cl)cc(Cl)c3)cccc2c1N | 0.28 | 0.48 |
| CCCNC(=O)c1nnc2c(-c3cnc(OC)c(F)c3)cccc2c1N | −0.012 | 0.14 |
| CCCNC(=O)c1nnc2c(-c3cnc(OC)c(Cl)c3)cccc2c1N | 0.086 | 0.04 |
| CCCNC(=O)c1nnc2c(-c3ccc(N(C)C)cc3)cccc2c1N | 0.07 | 0.18 |
| CCCNC(=O)c1nnc2c(-c3ccc(C)cc3)cccc2c1N | 0.013 | 0.11 |
| CCCNC(=O)c1nnc2c(-c3ccc4[nH]ccc4c3)cccc2c1N | 0.15 | 0.16 |
| CNC(=O)c1nnc2c(-c3cc(C)ccc3OC)cccc2c1N | 0.19 | 0.43 |
| CCCNC(=O)c1nnc2c(-c3cc(C)c(OC)c(C)c3)cccc2c1N | 0.79 | 0.32 |
| CCCNC(=O)c1nnc2c(-c3cc(F)ccc3F)c(F)ccc2c1N | 0.013 | 0.098 |
| CCCNC(=O)c1nnc2c(-c3cccc(OC(F)(F)F)c3)cccc2c1N | 0.87 | 0.48 |
| CCCNC(=O)c1nnc2c(-c3cccc(C(=O)O)c3)cccc2c1N | −0.038 | 0.08 |
| CCCNC(=O)c1nnc2c(-c3cc(OC)c(OC)c(OC)c3)cccc2c1N | 0.4 | 0.67 |
| CCCNC(=O)c1nnc2c(-c3ccccc3)c(OC)ccc2c1N | 0.12 | 0.08 |
| CCCNC(=O)c1nnc2c(-c3ccc(OC(F)(F)F)cc3)cccc2c1N | 0.32 | 0.04 |
| CCCNC(=O)c1nnc2c(-c3cc(C(F)(F)F)cc(C(F)(F)F)c3)cccc2c1N | 0.44 | 0.13 |
| CCNC(=O)c1nnc2c(-c3cnc(OC)c(F)c3)cccc2c1N | −0.010 | 0.223 |
| COc1ccc(F)cc1-c1cccc2c(N)c(C(=O)NC3CC3)nnc12 | −0.028 | 0.357 |
| COc1ccncc1-c1cccc2c(N)c(C(=O)NC3CC3)nnc12 | 0.077 | 0.337 |
| COc1ncccc1-c1cccc2c(N)c(C(=O)NC3CC3)nnc12 | −0.054 | 0.247 |
| COc1ccc(-c2cccc3c(N)c(C(=O)NC4CCC4)nnc23)c(OC)c1 | 0.091 | 0.243 |
| Cc1ccc(-c2cccc3c(N)c(C(=O)NC4CC4)nnc23)cn1 | −0.166 | 0.074 |
| CCNC(=O)c1nnc2c(-c3ccc(OC)cc3OC)cccc2c1N | −0.006 | 0.104 |
